Measured values taken from patent EP4711361A1, “NITROGEN-CONTAINING HETEROCYCLIC COMPOUND AND USE THEREOF” (Jiangsu Deyuan Pharmaceutical Co.,Ltd., priority 2023, dated 2024).
pIC50: −log10 of the molar value. Read-outs that look alike come from different tables or passages of the source.

What was measured:
human CYP11B2 = target: T1, human CYP11B2 (Homo sapiens, UniProt P19099); test: In vitro activity assay of monoclonal cells overexpressing human CYP11B2; type: cell-based; conditions: G402 cells overexpressing human CYP11B2; 1 µM 11-deoxycorticosterone, 16 hours; aldosterone by LC-MS/MS
T1 construct: expressed in transfected cells; host or cells: human renal leiomyoma G402 cells (monoclonal)
T1 sequence (P19099 25-503): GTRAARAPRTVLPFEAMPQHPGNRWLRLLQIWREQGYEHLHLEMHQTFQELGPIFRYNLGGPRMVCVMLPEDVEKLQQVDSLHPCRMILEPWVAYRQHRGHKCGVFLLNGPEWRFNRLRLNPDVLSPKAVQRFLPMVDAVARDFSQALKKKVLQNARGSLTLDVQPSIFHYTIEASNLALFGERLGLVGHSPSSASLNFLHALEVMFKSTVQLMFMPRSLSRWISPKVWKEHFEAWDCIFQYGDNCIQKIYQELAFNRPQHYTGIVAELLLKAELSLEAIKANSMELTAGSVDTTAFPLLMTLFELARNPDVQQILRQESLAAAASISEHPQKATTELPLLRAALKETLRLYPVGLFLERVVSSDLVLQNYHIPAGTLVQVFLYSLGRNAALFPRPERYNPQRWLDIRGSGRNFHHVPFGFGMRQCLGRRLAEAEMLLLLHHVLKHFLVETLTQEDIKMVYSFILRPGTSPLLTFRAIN
Experimental: The human renal leiomyoma G402 cell line overexpressing human CYP11B2 was selected to serve as a compound activity screening system. Table 1: Cell and reagent information
2) Compound details: The test compound was prepared as a 10 µM working concentration using DMSO. 3) Experimental procedure
Day 1: Cells were digested, and human renal leiomyoma G402 cells overexpressing human CYP11B2 were resuspended to 1×10^5 cells/mL, with 100 µL seeded into a 96-well plate.
(§1) Day 3: The cell supernatant was collected and added to 200 µL of a methanol solution containing internal standards (internal standards: 35 ng/mL ketoprofen or 7.5 ng/mL carbamazepine or 5 ng/mL diphenhydramine or 10 ng/mL tolbutamide). The mixture was vortexed and centrifuged (4000×g, 4°C, 5 minutes). Then, 100 µL of the supernatant was taken and mixed with 100 µL of pure water.
Ratio = Aldosterone peak area/Internal standard peak area [formula] Control activity% = (Ratiotestcompound/RatioDMSO) × 100% [formula]
(§2) "Ratio test compound" represents the Ratio values at different concentrations of the test compound.
(§3) "Ratio DMSO" represents the Ratio value without the addition of the test compound. • X = Log (compound concentration) • Y = Control activity%
The IC50 of the test compound was determined by fitting to a nonlinear regression equation using XLfit 5.5.0. Table 3: Results for in vitro activity assay of monoclonal cells overexpressing human CYP11B2

human CYP11B1 = target: T2, human CYP11B1 (Homo sapiens, UniProt P15538); test: In vitro activity assay of monoclonal cells overexpressing human CYP11B1; type: cell-based; conditions: G402 cells overexpressing human CYP11B1; 1 µM 11-deoxycortisol, 16 hours; cortisol by LC-MS/MS
T2 construct: expressed in transfected cells; host or cells: human renal leiomyoma G402 cells (monoclonal)
T2 sequence (P15538 25-503): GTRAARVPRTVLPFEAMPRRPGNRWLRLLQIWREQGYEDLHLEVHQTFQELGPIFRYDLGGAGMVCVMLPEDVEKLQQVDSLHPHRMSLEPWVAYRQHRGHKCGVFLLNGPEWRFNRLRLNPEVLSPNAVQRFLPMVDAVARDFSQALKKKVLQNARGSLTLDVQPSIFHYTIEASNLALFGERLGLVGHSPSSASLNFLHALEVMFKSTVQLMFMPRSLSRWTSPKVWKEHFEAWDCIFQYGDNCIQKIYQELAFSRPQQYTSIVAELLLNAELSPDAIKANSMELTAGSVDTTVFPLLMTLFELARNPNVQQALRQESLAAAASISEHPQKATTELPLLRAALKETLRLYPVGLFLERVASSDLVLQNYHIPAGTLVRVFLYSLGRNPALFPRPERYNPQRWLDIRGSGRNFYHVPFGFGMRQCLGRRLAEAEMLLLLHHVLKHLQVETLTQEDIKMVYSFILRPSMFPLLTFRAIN
Experimental: The human renal leiomyoma G402 cell line overexpressing human CYP11B1 was selected to serve as a compound selectivity screening system.
Day 1: Cells were digested, and human renal leiomyoma G402 cells overexpressing CYP11B1 were resuspended to 1×10^5 cells/mL, with 100 µL seeded into a 96-well plate.
as §1
Ratio = Cortisol peak area/Internal standard peak area [formula] Control activity% = (Ratiotestcompound/RatioDMSO) × 100% [formula]
as §2, §3
The IC50 of the test compound was determined by fitting to a nonlinear regression equation using XLfit 5.5.0. Table 4: Results for in vitro activity assay of monoclonal cells overexpressing human CYP11B1

CYP1A2 = target: T3, CYP1A2 (Homo sapiens, UniProt P05177); test: Human liver microsome CYP inhibition assay, CYP1A2; type: in vitro ADME
T3 construct: Mixed human liver microsomes (HLM) were purchased from Corning Inc; tissue Corning Inc; host or cells: pooled (mixed) human liver microsomes
Experimental: (§4) Experimental objective: To evaluate the inhibitory activity of the test substance on human liver microsomal cytochrome P450 isoenzymes (CYP1A2, CYP2C9, CYP2C19, CYP2D6, CYP3A4) using a 5-in-1 probe substrate for CYP isoenzymes.
(§5) Mixed human liver microsomes (HLM) were purchased from Corning Inc. (Steuben, New York, USA) and stored at temperatures below -70°C prior to use.
(§6) The working solution of the test substance, which had been diluted to a series of concentrations, was added to an incubation system containing human liver microsomes, probe substrates, and auxiliary factors of the circulatory system. A control containing solvent but no test substance served as an enzyme activity control (100%). The concentration of metabolites produced from probe substrates in the samples was determined using Liquid Chromatography-Tandem Mass Spectrometry (LC-MS/MS) method. Non-linear regression analysis of the average percentage activity of the test substance against its concentration was conducted using SigmaPlot (V.11). The IC50 values were calculated using a three-parameter or four-parameter inverse log equation. Table 10: Cytochrome P450 isoenzyme half maximal inhibitory concentration IC50 (µM)

CYP2C9 = target: T4, CYP2C9 (Homo sapiens, UniProt P11712); test: Human liver microsome CYP inhibition assay, CYP2C9; type: in vitro ADME
T4 construct: Mixed human liver microsomes (HLM) were purchased from Corning Inc; tissue Corning Inc; host or cells: pooled (mixed) human liver microsomes
Experimental: as §4, §5, §6

CYP2C19 = target: T5, CYP2C19 (Homo sapiens, UniProt P33261); test: Human liver microsome CYP inhibition assay, CYP2C19; type: in vitro ADME
T5 construct: Mixed human liver microsomes (HLM) were purchased from Corning Inc; tissue Corning Inc; host or cells: pooled (mixed) human liver microsomes
Experimental: as §4, §5, §6

CYP2D6 = target: T6, CYP2D6 (Homo sapiens, UniProt P10635); test: Human liver microsome CYP inhibition assay, CYP2D6; type: in vitro ADME
T6 construct: Mixed human liver microsomes (HLM) were purchased from Corning Inc; tissue Corning Inc; host or cells: pooled (mixed) human liver microsomes
Experimental: as §4, §5, §6

CYP3A4 = target: T7, CYP3A4 (Homo sapiens, UniProt P08684); test: Human liver microsome CYP inhibition assay, CYP3A4; type: in vitro ADME
T7 construct: Mixed human liver microsomes (HLM) were purchased from Corning Inc; tissue Corning Inc; host or cells: pooled (mixed) human liver microsomes
Experimental: as §4, §5, §6

in vivo = conditions: rat, po, 2 mg/kg

T5 sequence (P33261 whole entry): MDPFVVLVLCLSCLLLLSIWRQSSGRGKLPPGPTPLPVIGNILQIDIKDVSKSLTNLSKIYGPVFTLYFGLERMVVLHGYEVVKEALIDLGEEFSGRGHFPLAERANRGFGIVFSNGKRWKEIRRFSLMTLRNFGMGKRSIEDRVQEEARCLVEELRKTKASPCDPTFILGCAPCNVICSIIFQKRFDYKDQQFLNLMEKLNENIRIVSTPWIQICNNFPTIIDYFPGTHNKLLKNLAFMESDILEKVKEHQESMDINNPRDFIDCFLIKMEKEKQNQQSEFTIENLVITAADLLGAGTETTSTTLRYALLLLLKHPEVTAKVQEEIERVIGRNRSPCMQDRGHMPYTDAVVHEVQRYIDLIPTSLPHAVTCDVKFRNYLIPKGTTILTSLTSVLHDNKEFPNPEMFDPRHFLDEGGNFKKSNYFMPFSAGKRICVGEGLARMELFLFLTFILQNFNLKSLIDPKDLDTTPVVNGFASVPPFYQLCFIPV
T7 sequence (P08684 whole entry): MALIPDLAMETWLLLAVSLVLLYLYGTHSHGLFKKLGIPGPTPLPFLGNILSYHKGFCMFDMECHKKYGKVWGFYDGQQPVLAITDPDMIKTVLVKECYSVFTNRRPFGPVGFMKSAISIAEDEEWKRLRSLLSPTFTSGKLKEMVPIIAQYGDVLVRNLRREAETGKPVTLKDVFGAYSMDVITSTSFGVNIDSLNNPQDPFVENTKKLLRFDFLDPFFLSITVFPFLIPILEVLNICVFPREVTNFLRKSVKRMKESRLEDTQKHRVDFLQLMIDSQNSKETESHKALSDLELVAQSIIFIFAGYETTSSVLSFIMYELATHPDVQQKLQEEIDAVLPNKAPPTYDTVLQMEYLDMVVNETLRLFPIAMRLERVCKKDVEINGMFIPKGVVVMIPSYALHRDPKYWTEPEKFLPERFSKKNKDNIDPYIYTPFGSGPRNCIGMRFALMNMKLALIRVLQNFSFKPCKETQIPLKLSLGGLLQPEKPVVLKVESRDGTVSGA
T4 sequence (P11712 whole entry): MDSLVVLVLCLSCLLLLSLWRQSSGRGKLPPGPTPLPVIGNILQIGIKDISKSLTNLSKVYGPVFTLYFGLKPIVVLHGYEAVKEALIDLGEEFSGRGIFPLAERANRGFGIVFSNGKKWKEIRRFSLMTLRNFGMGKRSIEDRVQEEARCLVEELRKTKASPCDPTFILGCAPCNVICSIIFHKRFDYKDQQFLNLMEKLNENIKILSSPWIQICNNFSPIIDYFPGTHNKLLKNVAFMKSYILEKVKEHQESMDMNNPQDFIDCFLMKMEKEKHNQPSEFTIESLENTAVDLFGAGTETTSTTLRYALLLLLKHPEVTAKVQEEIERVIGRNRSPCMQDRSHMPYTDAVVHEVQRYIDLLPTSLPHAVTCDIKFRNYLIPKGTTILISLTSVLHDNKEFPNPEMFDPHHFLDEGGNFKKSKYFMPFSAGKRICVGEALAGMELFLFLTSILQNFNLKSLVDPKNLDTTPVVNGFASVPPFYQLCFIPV
T6 sequence (P10635 whole entry): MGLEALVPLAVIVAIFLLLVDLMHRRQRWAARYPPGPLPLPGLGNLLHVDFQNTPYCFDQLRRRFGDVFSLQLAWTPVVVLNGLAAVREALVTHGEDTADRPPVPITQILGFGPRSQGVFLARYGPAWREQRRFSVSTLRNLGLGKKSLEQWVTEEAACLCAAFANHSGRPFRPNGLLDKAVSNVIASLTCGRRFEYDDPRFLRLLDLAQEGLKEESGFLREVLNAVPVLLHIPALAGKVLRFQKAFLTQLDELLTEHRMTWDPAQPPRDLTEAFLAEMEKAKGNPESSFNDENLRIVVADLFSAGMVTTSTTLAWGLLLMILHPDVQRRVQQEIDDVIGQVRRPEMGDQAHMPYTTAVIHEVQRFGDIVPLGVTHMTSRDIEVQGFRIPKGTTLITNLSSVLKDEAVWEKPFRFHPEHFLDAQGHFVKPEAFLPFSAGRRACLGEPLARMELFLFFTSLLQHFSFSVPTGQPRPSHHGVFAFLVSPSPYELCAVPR
T3 sequence (P05177 whole entry): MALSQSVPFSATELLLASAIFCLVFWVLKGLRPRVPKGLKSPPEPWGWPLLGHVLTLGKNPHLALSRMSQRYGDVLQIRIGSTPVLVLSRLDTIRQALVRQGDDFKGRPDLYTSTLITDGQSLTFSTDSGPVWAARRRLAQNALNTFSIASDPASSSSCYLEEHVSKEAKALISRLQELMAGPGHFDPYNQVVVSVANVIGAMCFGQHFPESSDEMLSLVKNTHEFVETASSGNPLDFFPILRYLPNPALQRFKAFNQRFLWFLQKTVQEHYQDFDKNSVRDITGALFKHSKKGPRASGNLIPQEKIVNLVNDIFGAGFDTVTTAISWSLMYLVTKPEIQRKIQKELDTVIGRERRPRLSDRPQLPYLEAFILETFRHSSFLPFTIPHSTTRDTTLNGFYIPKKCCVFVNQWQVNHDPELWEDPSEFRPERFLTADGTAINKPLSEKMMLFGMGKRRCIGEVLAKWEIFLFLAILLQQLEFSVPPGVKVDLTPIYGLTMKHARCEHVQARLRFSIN

| SMILES | pIC50 (human CYP11B2) | pIC50 (human CYP11B1) | IC50 (CYP1A2; mixed human liver microsomes, 5-in-1 probe substrate, read-out: Cytochrome P450 isoenzyme half maximal inhibitory concentration IC50 (µM) CYP1A2) [µM] | IC50 (CYP2C9; mixed human liver microsomes, 5-in-1 probe substrate, read-out: Cytochrome P450 isoenzyme half maximal inhibitory concentration IC50 (µM) CYP2C9) [µM] | IC50 (CYP2C19; mixed human liver microsomes, 5-in-1 probe substrate, read-out: Cytochrome P450 isoenzyme half maximal inhibitory concentration IC50 (µM) CYP2C19) [µM] | IC50 (CYP2D6; mixed human liver microsomes, 5-in-1 probe substrate, read-out: Cytochrome P450 isoenzyme half maximal inhibitory concentration IC50 (µM) CYP2D6) [µM] | IC50 (CYP3A4; mixed human liver microsomes, 5-in-1 probe substrate, read-out: Cytochrome P450 isoenzyme half maximal inhibitory concentration IC50 (µM) CYP3A4) [µM] | pIC50 (CYP1A2) | pIC50 (CYP2C9) | pIC50 (CYP2C19) | pIC50 (CYP2D6) | pIC50 (CYP3A4) | AUC(0-t) at 24 h (in vivo) [µM·h] | Cmax (in vivo) [µM] | bioavailability (in vivo) [%] | half-life (in vivo) [h] |
| --- | --- | --- | --- | --- | --- | --- | --- | --- | --- | --- | --- | --- | --- | --- | --- | --- |
| CCC(=O)N[C@@H]1CCCc2c(-c3ccc4c(ccc(=O)n4C)c3)cncc21 (single isomer, unassigned) [Compound 001] | 7.92 | 5.61 | > 50 | > 50 | > 50 | > 50 | > 50 |  |  |  |  |  |  |  |  |  |
| CCC(=O)NC1CCCc2c(-c3cc4c(s3)N(C)C(=O)CC4)cncc21 (single isomer, unassigned) [Compound 017] | 8.68 | 6.49 |  |  |  |  |  | < 4.30 | 4.35 | < 4.30 | < 4.30 | < 4.30 | 8.13 | 4.17 | 115 | 1.34 |
| CCC(=O)NC1CCCc2c(-c3cc4ccc(=O)n(C)c4s3)cncc21 (single isomer, unassigned) [Compound 023] | 7.90 | 5.76 |  |  |  |  |  | < 4.30 | < 4.30 | < 4.30 | < 4.30 | < 4.30 | 44.2 | 6.92 | 109 | 3.6 |
